The source of these data is ChEMBL document CHEMBL1201862, “PubChem BioAssay data set” (2004).

Active and inactive are the calls of the source. Rule as the data show it, for most assays here: active = IC50 of 10 µM or less and inactive = more.

Holding throughout (assay type): functional
Test [1] has as its target DNA dC->dU-editing enzyme APOBEC-3A (Homo sapiens, UniProt P31941). Description: SAR analysis of small molecule inhibitors of APOBEC3A DNA Deaminase via a fluorescence-based single-stranded DNA deaminase assay. The following applies: read-out: IC50_Mean.
The target in test [2] is DNA dC->dU-editing enzyme APOBEC-3G (Homo sapiens, UniProt Q9HC16). Description: inhibition of APOBEC3G ssDNA deamination – biochemical, fluorescence, single-stranded DNA substrate, SAR follow-up (AID 602136). The following applies: read-out: IC50_Mean.
The subject of a further test is CHO-K1. Description: Counterscreen for antagonists of the orexin 1 receptor (OX1R; HCRTR1): Homogeneous time resolved fluorescence (HTRF)-based cell-based dose response assay to identify antagonists of the parental CHO-K1 cell line. [Related pubchem assays (depositor defined):AID434989, AID435008, AID463079, AID485270, AID492963, AID492964, AID492965, AID493232, AID504699, AID504701]. The conditions noted are these: Cricetulus griseus. Background: Counterscreens check selectivity or assay interference.

The target of test [3] is T1, Orexin receptor type 2 (Homo sapiens, UniProt O43614).
T1 sequence (O43614 whole entry): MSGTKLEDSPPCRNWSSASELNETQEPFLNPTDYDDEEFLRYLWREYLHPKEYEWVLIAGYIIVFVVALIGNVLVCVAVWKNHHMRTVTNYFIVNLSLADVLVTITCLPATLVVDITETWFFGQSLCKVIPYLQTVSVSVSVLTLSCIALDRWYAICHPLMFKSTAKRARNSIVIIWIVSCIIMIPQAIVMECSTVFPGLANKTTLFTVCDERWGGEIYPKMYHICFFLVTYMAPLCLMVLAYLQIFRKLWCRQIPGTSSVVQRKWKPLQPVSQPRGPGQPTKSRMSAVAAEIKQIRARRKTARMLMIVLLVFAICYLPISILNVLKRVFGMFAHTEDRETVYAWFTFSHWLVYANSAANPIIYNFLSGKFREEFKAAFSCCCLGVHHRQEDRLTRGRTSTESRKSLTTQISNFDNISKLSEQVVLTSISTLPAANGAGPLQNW
Description: Counterscreen assay for antagonists of the orexin 1 receptor (OX1R; HCRTR1): Fluorescence-based cell-based dose response assay for antagonists of the orexin 2 receptor (OX2R; HCRTR2), run by assay provider.

Test [4] concerns the target T2, Calpain-2 catalytic subunit (Sus scrofa, UniProt P43367).
T2 sequence (P43367 whole entry): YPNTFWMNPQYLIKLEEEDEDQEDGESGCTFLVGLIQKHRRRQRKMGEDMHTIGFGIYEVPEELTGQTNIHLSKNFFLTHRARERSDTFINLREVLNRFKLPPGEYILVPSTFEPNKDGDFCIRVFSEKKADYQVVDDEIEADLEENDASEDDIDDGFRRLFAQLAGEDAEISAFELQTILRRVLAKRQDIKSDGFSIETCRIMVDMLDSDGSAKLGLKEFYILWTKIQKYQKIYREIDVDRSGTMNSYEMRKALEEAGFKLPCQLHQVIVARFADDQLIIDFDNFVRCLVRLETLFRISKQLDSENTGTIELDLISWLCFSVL
Description: m-calpain protease blockers, concentration series – biochemical, fluorogenic peptide substrate, dose response (AID 1420).

Test [5] can be described thus: Counterscreen for antagonists of the orexin 1 receptor (OX1R; HCRTR1): Fluorescence-based cell-based high throughput dose response assay to identify antagonists of the parental CHO cell line. [Related pubchem assays (depositor defined):AID434989, AID435008, AID463079, AID485270, AID492963, AID492964, AID492965, AID493232, AID504699, AID504701].
For test [6], the target named is T3, Orexin/Hypocretin receptor type 1 (Homo sapiens, UniProt O43613).
T3 sequence (O43613 whole entry): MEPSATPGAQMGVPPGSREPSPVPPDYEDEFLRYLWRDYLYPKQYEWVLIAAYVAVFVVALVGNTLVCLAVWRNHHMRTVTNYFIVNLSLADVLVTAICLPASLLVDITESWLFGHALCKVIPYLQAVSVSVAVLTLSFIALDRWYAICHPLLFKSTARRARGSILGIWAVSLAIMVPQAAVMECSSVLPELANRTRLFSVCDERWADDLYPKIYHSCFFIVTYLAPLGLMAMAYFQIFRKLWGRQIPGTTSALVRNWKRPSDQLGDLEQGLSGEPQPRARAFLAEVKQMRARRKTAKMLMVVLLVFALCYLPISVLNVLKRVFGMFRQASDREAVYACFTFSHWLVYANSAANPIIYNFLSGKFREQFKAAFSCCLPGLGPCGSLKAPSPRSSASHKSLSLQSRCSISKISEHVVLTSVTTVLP
Description: Homogeneous Time Resolved Fluorescence (HTRF)-based cell-based high throughput dose response assay for antagonists of the orexin 1 receptor (OX1R; HCRTR1). [Related pubchem assays (depositor defined):AID434989, AID435008, AID463079, AID485270, AID492963, AID492964, AID492965, AID493232, AID504717, AID504718]. On the technique in general: In TR-FRET formats the signal depends on donor and acceptor labels being close together.

The target of test [7] is T1, Orexin receptor type 2. Description: Counterscreen assay for antagonists of the orexin 1 receptor (OX1R; HCRTR1): Homogeneous Time Resolved Fluorescence (HTRF)-based cell-based dose response assay for antagonists of the orexin 2 receptor (OX2R; HCRTR2), run by assay provider.
The target of test [8] is T3, Orexin/Hypocretin receptor type 1. Description: Fluorescence-based cell-based high throughput dose response assay for antagonists of the orexin 1 receptor (OX1R; HCRTR1). [Related pubchem assays (depositor defined):AID434989, AID435008, AID463079, AID485270, AID492963, AID492964, AID492965, AID493232, AID504717, AID504718].

Sequence of DNA dC->dU-editing enzyme APOBEC-3G (Q9HC16 whole entry): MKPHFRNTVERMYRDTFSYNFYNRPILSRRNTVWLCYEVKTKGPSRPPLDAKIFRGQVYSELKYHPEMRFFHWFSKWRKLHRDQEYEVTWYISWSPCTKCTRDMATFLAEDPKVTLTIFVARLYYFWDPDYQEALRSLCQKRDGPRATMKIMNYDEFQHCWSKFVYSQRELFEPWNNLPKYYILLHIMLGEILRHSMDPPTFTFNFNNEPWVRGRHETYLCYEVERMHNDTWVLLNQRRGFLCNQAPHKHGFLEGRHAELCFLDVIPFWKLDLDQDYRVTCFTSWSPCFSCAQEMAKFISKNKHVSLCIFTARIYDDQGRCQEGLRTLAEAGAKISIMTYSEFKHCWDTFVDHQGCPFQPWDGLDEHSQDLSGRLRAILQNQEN
Sequence of DNA dC->dU-editing enzyme APOBEC-3A (P31941 whole entry): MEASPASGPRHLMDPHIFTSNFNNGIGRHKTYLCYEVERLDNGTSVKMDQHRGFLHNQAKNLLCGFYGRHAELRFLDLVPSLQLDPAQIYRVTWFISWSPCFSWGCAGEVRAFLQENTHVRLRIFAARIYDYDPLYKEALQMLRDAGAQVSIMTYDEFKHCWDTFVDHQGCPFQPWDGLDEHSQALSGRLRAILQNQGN

As for `Cc1ccc(Cl)c2c1N[C@@H](c1ccccc1Br)[C@H]1CC=C[C@@H]21`, the IC50 in test [1] and in test [2] was > 99 µM (inactive) throughout.

For the molecule `O=C(CSc1ccc(-c2ccccc2)nn1)c1cccs1`, the IC50 was > 66.2 µM (inactive) with CHO-K1; > 88.8 µM (inactive) at Orexin receptor type 2 [3]; > 50 µM (not active) in test [4]; > 49.8 µM (inactive) in test [5]; 1.08 µM (active) in test [6]; > 50 µM (inactive) at Orexin receptor type 2 [7]. Also, in test [8], the IC50 was 3.37 µM (active).

Regarding `N#CC(=C1CCCC1)c1nc(-c2ccccc2O)cs1`, the IC50 in the test with CHO-K1 is > 66.2 µM (inactive); at Orexin receptor type 2 [3] it was 31.6 µM (inactive); in test [5], > 49.7 µM (inactive); in test [6], 6.33 µM (active); on Orexin receptor type 2 [7], 19.8 µM (inactive); in [8] it was 6.43 µM (active).
